Entries after “also recorded” stand apart in the source; their conditions may differ.
How the values were obtained:
[1] = test system: spontaneously occurring glioblastoma; assay: Canine study: tumor resection plus canine CD200AR-L and autologous tumor lysate vaccination; format: in vivo, dog; conditions: canine glioma model
Description: Canine study. Pet dogs with a solitary intra-axial mass found by magnetic resonance imaging (MRI) were recruited into a pilot study to assess the effect of a canine-specific peptide. The MRIs were performed to find the causes of generalized seizure activity or behavioral changes, and anti-epileptic drug therapy and corticosteroids were prescribed to control seizures and minimize cerebral edema, respectively. Additional inclusion criteria were 1) tumor suitable for surgical resection, 2) informed consent provided by the dog's owner, 3) normal mentation status at the time of surgery, and 4) no previous definitive therapy for the suspected glioma.
All dogs underwent surgical resection of the intra-axial mass for maximal tumor debulking. The removed tumors were immediately processed to generate autologous tumor lysates. The lysates were prepared by culturing single-cell suspensions from minced fresh tumor samples at 37° C. in 5% […]. […] An immediate postoperative MRI was performed to assess the extent of resection and to quantify any residual tumor volume. Tumor volume was measured using the planimetry method, which outlines the tumor perimeter on each MR slice; Osirix software was used to calculate the area, and then the areas were summed and multiplied by slice thickness plus gap width. After recovery from anesthesia, all dogs were monitored in the intensive care unit for at least 24 hours. […]

CD14+ cells [2] = assay: Dendritic cell maturation: phenotyping for CD80, CD86, HLA-DR; format: cell-based, human; conditions: peptide alone compared with GM-CSF+IL4, p<0.0001
Description: FIGS. 4A-4D. Targeting CD200 activation receptors enhances dendritic cell maturation. (FIGS. 4A, 4B) CD14 purified cells were pulsed with (FIG. 4A) GM-CSF+IL4 or equal molar ratios of peptides P1A8, P2A0, or P4A10 or (FIG. 4B) GM-CSF+IL4 plus equal molar ratios of peptides P1A8, P2A0, or P4A10 and incubated for 48 h. Cells were harvested and phenotyped for CD80, CD86, and HLA-DR. (FIG. 4C) Immature dendritic cells from donors with or without CMV were pulsed with the CMV antigen pp65+/−equal molar ratios of peptides P1A8, P2A0, or P4A10. Cells were washed, and autologous T-cells were added back and incubated for a further 48 h. Supernatants were analyzed for IFNγ production. (FIG. 4D) Immature dendritic cells were pulsed with the CMV antigen pp65+/−P4A10. After the cells were washed, autologous T-cells were added back and incubated for a further 48 h. Supernatants were analyzed for IFNγ, IL-6, TNFα and RANTES content. Error bars represent standard deviation (n=3 healthy donors/group, *P<0.05, **P<0.005, ***P<0.0005 by t-test). The data represent three separate healthy donors. Black bars represent CMV-negative donors.
Targeting CD200 activation receptors enhances dendritic cell maturation. TNF-regulated cytokines (Table 1) have been implicated in dendritic cell maturation. […] To substantiate this, CD14^+ cells were isolated from healthy human donors and pulsed with GM-CSF+IL4, P1A8, P2A0, or P4A10 27. Cells pulsed with P1A8, P2A0, and P4A10 expressed higher levels of the co-stimulatory molecules CD80, CD86, and HLA-DR than cells treated with GM-CSF+IL4 (p<0.0001; FIG. 4a). Moreover, we observed synergistic upregulation of CD80/86 and HLA-DR when CD14^+ cells were incubated with GM-CSF+IL4 and each of the peptides (p<0.0001) (FIG. 4b).

CD14+ cells [3] = assay: RNAseq / NanoString gene expression analysis of pulsed CD14+ cells; format: cell-based, human
From the text: Nanostring gene expression analysis: Total RNA from CD14^+ cells was sent to New Zealand Genomics Limited (Dunedin, New Zealand) to measure the expression of genes that are differentially expressed during inflammation (nCounter GX, NanoString Technologies, Seattle, WA, USA). Briefly, total RNA was extracted from CD14^+ cells (MagJET RNA kit, Thermo Fisher Scientific, Waltham, MA) using the protocol adapted for tissue (KingFisher Duo machine, Thermo Fisher Scientific, Waltham, MA). RNA samples were then quantified (Qubit® 2.0 fluorometer, Thermo Fisher Scientific) and subjected to RNA integrity analysis (2100 Bioanalyzer, Agilent Technologies, Santa Clara, CA). Probes for the genes encoding CD44 (NM_001001392.1); NANOG (NM_024865.2); OCT4 (NM_002701.4); STAT3 (NM_139276.2); and the housekeeping genes glucuronidase beta (NM_000181.1), clathrin heavy chain (NM 4859.2), and hypoxanthine phosphoribosyltransferase 1 (NM_000194.1) were designed and manufactured by NanoString Technologies.
Expression data obtained with NanoString GX were analyzed by using nSolver Analysis Software 3.0 (nanostring.com/products/nSolver) with default settings, and normalized to housekeeping genes. nSolver was used to perform cluster analysis and to generate heat maps by using Java Treeview Version 1.1.6r4. Pathway analysis was performed by using the PathCards Pathway Unification Database (pathcards.genecards.org). Student's t-tests were used to determine significant differences (p<0.05).

human CD14 cells = assay: CD200R1 and PD-1 on human CD14 cells pulsed with human CD200AR-L, flow cytometry; format: cell-based; conditions: mean fluorescent intensity
Description: FIGS. 7A-7G. CD200AR-L pulses down-regulate inhibitory CD200R1. Murine CD11b cells were pulsed with mCD200AR-L, RNA was extracted and analyzed for CD200R1 or PD-1 expression (FIGS. 7A&B). To further these studies, CD11b cells were stimulated with OVA+/−CD200AR-L, cells were washed and purified T cells were added. Following 24 hr incubation, T-cells were isolated and analyzed for CD200R1 or PD-1 expression (FIGS. 7C&D). To see if these experiments translated to humans, CD14 cells were pulsed with our human CD200AR-L. Following 24 hr incubation, cells were stained with anti-CD200R1 analyzed by flow cytometry (FIG. 7E), mean fluorescent intensity was analyzed for CD200R1 (FIG. 7F) and PD-1 (FIG. 7G) expression. […] Error bars represent standard deviation (n=3/group, *P<0.05, **P<0.005, ***P<0.0005, ****P<0.00005 by t-test.
FIGS. 13A-13F. Figure. […] Murine CD11b cells were pulsed CD200AR-L and analyzed for transcription levels of (FIG. 13A) CD200R1 and (FIG. 13B) PD-1; Human CD14 cells were pulsed with human CD200AR-L, following 48 hr incubation, cells were analyzed by flow cytometry for (FIG. 13C) CD200R1 and (FIG. 13D) PD-1 expression; murine CD11b cells from wildtype mice were pulsed with OVA+/− the CD200AR-L. Cells were washed, purified CD3 cells were added to CD11b cells for 24 hrs. CD3 cells were purified and analyzed for transcription levels of (FIG. 13E) CD200R1 and (FIG. 13F) PD-1. […]

Human CD14+ cells = assay: Cytokine measurements in CD14+ cells pulsed with CD200AR-L peptide; format: cell-based; conditions: selection among 61 alanine-substituted peptides
Description: Cytokine measurements. Human CD14^+ cells (5×10^5) were isolated from peripheral blood mononuclear cells (PBMCs) using anti-CD14 beads (BD Biosciences, San Jose, CA), typically yielding ≥70% recovery and ≥90% purity. Cells were pulsed with 2 μM CD200AR-L peptide and incubated for 48 h, after which the supernatants were analyzed by bead array for cytokine production (BD Biosciences, San Jose, CA).

Murine CD11b cells = assay: PMA-activated murine CD11b cells treated with PD-L1 +/- murine CD200AR-L, cytokines; format: cell-based; conditions: PD-L1 with or without murine CD200AR-L, 48 hr
From the text: FIGS. 8A-8C. CD200AR-L pulses overpowers the suppressive PD-L1.

Splenocytes = Splenocytes pulsed with CD200 or PD-L1 +/- mCD200AR-L, flow cytometry for CTLA4 and PD-L1; format: cell-based
Description: FIGS. 14A-14C. […] Splenocytes were pulsed with CD200, PD-L1+/−mCD200AR-L. Cells were analyzed by flow cytometry for the (FIG. 14A) CD4^+CTLA4^+, (FIG. 14B) CD8^+CTLA4^+or (FIG. 14C) CD11b^+PD-L1^+ populations. Error bars are representative of n=2 *P<0.005, **P<0.0001.
We propose that soluble CD200 and PD-L1 inhibit T cell activation through multiple checkpoints (FIG. 10). Therefore, the effect of multiple suppressive molecules (CD200 and PD-L1) on T cell inhibition was investigated. […] In addition, following PD-L1 treatment, an upregulation of PD-L1 on CD11b and an upregulation of CTLA4 was observed on T cells. Being CTLA4 and PD-L1 propagate separate inhibitory signals, it was hypothesized that PD-L1 inhibits T cell activation through 1) direct CD200 and PD-L1 on T cells and 2) direct PD-L1 (on APCs)/PD-I (on […]) producing cytokines upregulating CTLA4, which would explain the enhanced responses seen in combination α-PD-1 and α-CTLA4 treatments. However, neither of them inhibit CD200 effect on T cells.
We next looked at the effects of CD200AR-L on T cell inhibition. […] Being CTLA4 and PD-L1 propagate separate inhibitory signals, we hypothesize that PD-L1 inhibits T cell activation through two separate mechanisms, 1) through direct PD-L1 (on APCs)/PD-I (on T cells) interactions and through cytokine production following PD-L1 binding to the PD-1 on CD11b cell, which would explain the enhanced responses seen in combination α-PD-1 and α-CTLA4 treatments.

Murine splenocytes = assay: Splenocytes activated with PMA +/- PD-L1 or PD-L1+CD200AR-L, cytokines; format: cell-based; conditions: 48 hr
Description: FIGS. 11A-11C. […] Murine splenocytes were activated with PMA, +/−PD-L1 or PD-L1+mCD200AR-L. Following 48 hr incubation, supernatants were analyzed for (FIG. 11A) TNFα (FIG. 11B) IL-4 or (FIG. 11C) IL-5. Error bars are representative of n=3; *P<0.005.
The CD200 and PD-1 pathways crosstalk, allowing CD200AR-L to override the suppressive PD-L1. […] To evaluate the effect of CD200AR-L on PD-1/PD-L1, splenocytes were activated with PMA+/−PD-L1 or PD-L1+CD200AR-L, and supernatants were analyzed for TNFα, IL-4 and IL-5 production (FIG. 11A-11C). As observed with the CD200 protein (FIG. 11B), PD-L1 induced an immune suppressed environment as measured by cytokine production; however, PD-L1 reduced the production of TNFα, IL-4 and IL-5 induced by PMA, which was restored by the addition of CD200AR-L. These experiments led to the hypothesis that the CD200 and PD-1 pathways are connected.

murine glioma model = assay: Murine glioma model survival; format: in vivo
[4] = splenocytes pulsed with CD200 or PD-L1

CLFNTFGSGAISGTA (Ac-CLFNTFGSGAISGTA-NH2; listed as Canis lupus) [canine P4A10]
survival benefit [1]: significant survival benefit

IVTWQKKAAVSPENM (Ac-IVTWQKKAAVSPENM-NH2; listed as Homo sapiens) [P1A8]
levels of co-stimulatory molecules CD80, CD86, and HLA-DR (CD14+ cells [2]): higher levels
mRNA expression of TNF-regulated cytokines (CD14+ cells [3]; NanoString platform, FIG. 3b): most potently and consistently induced
mRNA expression of cytokines released in response to TNF signaling (CD14+ cells [3]; RNAseq, CD14+ cells): notable increase
PD-1 expression on human CD14 cells (human CD14 cells): down regulated
secretion of inflammatory cytokines from CD14+ cells (Human CD14+ cells): maximally stimulated

PD-L1: programmed cell death ligand 1, suppressive protein used to pulse cells
activation of CD11b cells (TNFalpha, IL4, IL5 in supernatant) (Murine CD11b cells): suppressed the activation
CTLA4 on CD4 cells (Splenocytes; [4]): upregulated
CTLA4 on CD8 cells (Splenocytes; [4]): upregulated
PD-L1 on CD11b cells (Splenocytes; [4]): upregulation; also recorded: upregulated
CTLA4 on T cells (Splenocytes; total splenocytes, following PD-L1 treatment): upregulation
production of TNFα, IL-4 and IL-5 (Murine splenocytes): reduced

VTWQKKKAVSPANM (Ac-VTWQKKKAVSPANM-NH2; listed as Mus musculus) [murine P1A12]
survival benefit (murine glioma model): significant survival benefit
